These are literature values, as cited in US20180042936A1, “MAINTENANCE THERAPY USING TIANEPTINE” (GENOMIND, Inc., priority 2016, published 2018).

Structures are written as SMILES. Like-named read-outs stand apart in the source and are kept apart here.

The conditions of series [1]: some individuals with treatment-resistant major depressive disorder and bipolar disorder.
The subject of series [2] is brain derived neurotrophic factor (BDNF). The settings on record: responders compared to non-responders.

As for `CNC1(c2ccccc2Cl)CCCCC1=O` (racemic) [Ketamine, (RS)-2-(2-Chlorophenyl)-2-(methylamino)cyclohexanone], the “time to anti-depression efficacy” value in series [1] was at most 1 h. The results for the “plasma BDNF levels” value in series [2] (240 min post-infusion (Haile et al. 2014)) and in series [2] (post-infusion of ketamine (Example 1)) were “significantly increased” and “increases plasma BDNF levels”, respectively.
